{"source": "patent US20230257715A1", "about": "“COMPOSITIONS AND METHODS FOR REGULATING ENTEROENDOCRINE CELL DIFFERENTIATION AND USES THEREOF” (The Children's Medical Center Corporation, priority 2020, published 2023)", "format_in_all_cases": "cell-based", "key": {"human duodenal enteroids [1]": {"tested_on": "human duodenal enteroids", "assay": "Hormone ELISA (5HT, GIP) of enteroid conditioned media", "details": "last two days of differentiation", "method": "Hormone quantification for GIP (MilliporeSigma, […]), GLP-1, PYY, and serotonin (Eagle Biosciences/DLD Diagnostika GmbH, SER39-KO1) and were performed using kits and following manufacturer's protocols. For these experiments, organoids were grown in 48-well plates to aid in concentrating the hormone of interest. Conditioned media was taken on day 14 of differentiation. For GIP quantification, Diprotin A (Tocris, 6019, 100 μM), a dipeptidyl peptidase 4 inhibitor, was added daily to the media for the last two days of differentiation to prevent GIP and GLP-1 degradation. For hormone induction studies, forskolin (Fsk) (10 μM) was added to fresh media 24-hours prior to conditioned media being taken. As an additional control, differentiation media not exposed to cells was also evaluated. This value was then subtracted from each experimental sample."}, "human duodenal enteroids [2]": {"tested_on": "human duodenal enteroids", "assay": "qPCR analysis of enteroendocrine and lineage markers in enteroids", "details": "time-course of AS-treated enteroids, RNA every two days"}, "human duodenal enteroids [3]": {"tested_on": "human duodenal enteroids", "assay": "Immunofluorescence staining of lineage markers CK20, MUC2, LYZ in enteroids", "method": "Immunofluorescence staining was performed as previously described with minor modifications (Dekkers J F, Alieva M, Wellens L M, et al. Nat Protoc 2019; 14:1l756-1771)^32. Organoids were grown in and isolated from Matrigel® as noted above. 1-3 wells from a 24-well plate were washed in 200 μL of 1× phosphate-buffered saline (PBS) and moved in suspension to a 1.5 mL microcentrifuge tube. Each tube was centrifuged at 800×g for 5 minutes at 4° C. to pellet organoids. PBS was aspirated, and organoids were fixed in 200 μL of 4% paraformaldehyde (PFA) for 20 minutes on ice, shaking. Each tube was centrifuged again as above, and PFA was aspirated. The organoids were then resuspended in 500 μL of 0.3% Triton-X in PBS and moved to a 48-well plate for the remaining steps. The organoids were permeabilized for 30 minutes at room temperature, shaking. Between each step, organoids were allowed to settle to the bottom of each well, the plate was angled, and the solution aspirated by careful pipetting. Organoids were then blocked with 5% bovine serum albumin in PBS for 1.5 hours at room temperature, shaking. This was followed by three five-minute washes in 500 μL of PBS at room temperature, shaking.\nEach well was then incubated in 200 μL of primary antibodies diluted in 5% BSA/0.1% Trition-X in PBS at 4° C. overnight. This was followed by five washes in 500 μL of 0.1% Triton-X in PBS for 15 minutes each at room temperature, shaking. 200 μL of secondary antibodies, including Alexa Fluor 488- or 647-conjugated anti-mouse (Invitrogen, A-21202, or A-31571, 1:400), Alexa Fluor 488-conjugated anti-rat (Invitrogen, A-21208, 1:400), Alexa Fluor 488-conjugated anti-goat (Invitrogen, A-11055, 1:400) or Alexa Fluor 647-conjugated anti-rabbit (Invitrogen, A-31573, 1:400), diluted in 0.1% Triton-X in PBS, which were then added to each well and incubated for two hours at room temperature, shaking. Organoids were then washed as above, then moved to new 1.5 mL centrifuge tubes. […]"}, "human duodenal enteroids [4]": {"tested_on": "human duodenal enteroids", "assay": "Flow cytometry of CHGA+ cells from enteroids", "method": "Organoids were incubated in Cell Recovery solution for 40-60 minutes at 4° C. to remove the Matrigel® and then centrifuged at 500×g for 5 minutes at 4° C. To achieve single cell suspension, organoids were then incubated in 500 μL of TrypLE™ Express (Thermo Fisher Scientific) at 37° C. for 30 minutes and broken up by repeated pipetting using a bent P1000 pipette tip. Each sample was then diluted in 800 μL of 20% FBS in Advanced DMEM/F12 and then centrifuged at 800×g for 5 minutes at 4° C. To mark dead cells, each sample was then incubated in DAPI (1:1000) diluted in 2% FBS/2 mM EDTA/calcium-free DMEM for 20 minutes at room temperature, then centrifuged at 800×g for 5 minutes at 4° C. and washed in 2% FBS/2 mM EDTA/DMEM. Cells were then incubated in 1% PFA for 15 minutes at room temperature, washed with 2% FBS/PBS and then permeabilized in 0.2% Tween 20 in 2% FBS/PBS for 15 minutes at 37° C. Following centrifugation, cells were resuspended in 0.1% Tween 20/2% FBS/2 mM EDTA in PBS with PE/Alexa Fluor 647-conjugated CHGA (BD Biosciences, 564563, 1:100) or PE/Alexa Fluor 647-conjugated mouse IgG1, K isotype, (BD Biosciences, 554680, 1:200) or with no antibody (the latter two acting as controls) for 30 minutes on ice. Cells were then washed in 0.1% Tween 20/2% FBS/2 mM EDTA in PBS, filtered through a 37-micron mesh, and then analyzed on a BD FACSAria II SORP flow cytometer. […]"}}, "note": "Entries after “also recorded” stand apart in the source; their conditions may differ."}
{"smiles": "CCn1cc(C(=O)O)c(=O)c2c(N)c(F)c(NC3CCCCC3)cc21", "note": "[AS, AS1842856]", "values": [{"measurement": "5HT secretion (ELISA of conditioned media)", "setting": "human duodenal enteroids [1]", "result": "promoted serotonin (5HT) production and secretion; also recorded: higher levels of 5HT secretion than all other conditions"}, {"measurement": "GIP secretion (ELISA of conditioned media)", "setting": "human duodenal enteroids [1]", "result": "no secretion of GIP"}, {"measurement": "CHGA and SST transcript levels over time", "setting": "human duodenal enteroids [2]", "result": "detectable transcript levels by the sixth day of differentiation"}, {"measurement": "NEUROD1 and NEUROG3 expression over time", "setting": "human duodenal enteroids [2]", "result": "showed increased expression around the fourth day of differentiation"}, {"measurement": "lysozyme (LYZ) immunofluorescence staining", "setting": "human duodenal enteroids [3]", "result": "expressed"}, {"measurement": "mucin 2 (MUC2) immunofluorescence staining", "setting": "human duodenal enteroids [3]", "result": "lesser degree"}, {"measurement": "cytokeratin 20 (CK20) immunofluorescence staining", "setting": "human duodenal enteroids [3]; enterocyte marker", "result": "lesser degrees"}, {"measurement": "number of CHGA+ cells relative to the number seen with G2D12 alone", "setting": "human duodenal enteroids [4]", "result": "~50", "unit": "times"}]}
